Each block holds one compound with its values, some of them ahead of it.
Tests used:
S. epidermidis = assay: Anti-biofilm functions of N-halamine-containing samples (recovered bacteria, SEM); assay type: cell-based; settings: polyurethane samples containing 4% additive, three days of immersion in S. epidermidis
Procedure: Preparation of N-halamine-containing materials. In one example, a predetermined amount of Cl-ODDMH (e.g., 1%, 2% and 4% to PU) was added into 5% polyurethane (Noveon) solutions in THF under constant stirring to from a clear solution. The solution was cast onto Teflon sheets in a fume hood at room temperature for 2 days to produce thin films (e.g., 170±10 μm of thickness). The films were further dried under vacuum at 50° C. for 3 days. Cl-ODDMH-containing PU sheets (e.g., 4×4 cm) or discs (e.g., 0.5 cm of diameter) were cut sterilely from the films. Pure PU sheets or discs were prepared under the same conditions as controls.
Anti-biofilm functions. The samples were immersed individually in sealed tubes containing 5 mL of S. epidermidis broth suspension (10^6-10^7 CFU/mL of bacteria) in a shaking water bath at 37° C. and 30 RPM. […] The solution was serially diluted, and 100 μL of each dilution was plated onto agar plates. The same procedure was applied to the untreated samples as controls. Bacterial colonies were counted after incubation at 37° C. for between about 24 and 48 hours. SEM studies were used to confirm the biofilm controlling function. PU discs with or without the presence of Cl-ODDMH were immersed in 5 mL 10^6-10^7 CFU/mL of S. epidermidis broth suspensions in a water bath at 37° C. and 30 RPM. […]

[1] = DSC and TGA thermal analysis of Cl-BTMP; assay type: physicochemical
[2] = system: Escherichia coli (E. coli, ATCC 15597, gram-negative); assay: Antimicrobial activity of CADMH in aqueous suspension; assay type: cell-based; settings: for contact time for a total kill of 10^8-10^9 CFU/mL of E. coli: 500 ppm of active chlorine content; for % of kill of E. coli / log reduction of E. coli: 1000 ppm of active chlorine content
Procedure: (§1) In other examples to evaluate antimicrobial activities of CADMH, Escherichia coli (e.g., E. coli, ATCC® 15597™, gram-negative) and Staphylococcus aureus subsp. aureus (e.g., S. aureus, ATCC® 6538™, gram-positive) were used as model microorganisms to challenge the antimicrobial functions of the samples. In the microbial studies, the bacteria were grown in broth solutions (e.g., LB broth for E. coli; Tryptic Soy broth for S. aureus) overnight at 37° C. Cells were harvested in a centrifuge, washed twice with phosphate buffered saline (e.g., PBS, OmniPur®, NaCl, 8.0 g/L; KCl, 0.20 g/L; Na2HPO4, 1.42 g/L; KH2PO4, 1.36 g/L; pH 7.4), re-suspended in PBS, and then diluted to concentrations of 10^8-9 CFU/mL. A known amount of CADMH (particle size: 60-80 mesh) was dispersed in 10 mL of sterilized distilled water. The mixture was vortexed and then sonicated for 10 minutes. Then, 100 μL of the bacteria suspension were added into the CADMH-containing suspension and the resultant mixture was vortexed for 60 seconds. After a certain period of contact time under constant shaking, the mixture was poured into 90 mL of 0.03 wt % sterilized sodium thiosulfate aqueous solution to quench the active chlorine and stop the antimicrobial test. […] The resulting solutions were vortexed for 2 minutes and then serially diluted, and each dilution was placed onto LB agar (for E. coli) or Tryptic soy agar (for S. aureus). The same procedure was also applied to the correspondent unchlorinated samples as controls. Bacterial colonies on the plates were counted after incubation at 37° C. for 24 hours.

[3] = system: Staphylococcus aureus subsp. aureus (S. aureus, ATCC 6538, gram-positive); assay: as above; assay type: cell-based; settings: for contact time for a total kill of 10^8-10^9 CFU/mL of S. aureus: 500 ppm of active chlorine content
Procedure: as §1

Solubility in water = assay type: physicochemical
E. coli = assay: Antimicrobial activity of CADMH-containing PS or HDPE films (sandwich test); assay type: cell-based
Procedure: Preparation of CADMH-containing polymeric materials. PS and HDPE were used as the model polymers to preliminarily evaluate the antimicrobial activities of CADMH as additives. In the preparation of CADMH-containing PS films, a certain amount of CADMH was dissolved in 5% PS solutions in THF. The solution was poured onto glass slides. The glass slides were put in a fume hood for 2 days at room temperature to evaporate most of the solvent, and then further dried in a vacuum oven at 30° C. for 3 days to obtain polymer films (100±10 μm of thickness). To prepare CADMH-containing HDPE films, a predetermined amount of CADMH was added into 5% HDPE solutions in hot o-xylene under constant stirring. After evaporation of the solvent, polymer films having a thickness of about 70±5 μm were obtained by hot pressing at 140° C. for 15 seconds. The chlorine contents of the CADMH-containing PS and HDPE films were determined by iodimetric titration, as described above. Pure PS or HDPE films without the presence of CADMH were prepared using the same procedures as controls.
Antimicrobial activity of CADMH-containing polymers. In the antimicrobial tests of CADMH-containing PS or HDPE films, 10 μL of E. coli suspensions (e.g., 10^8-10^9 CFU/mL) were placed onto the surface of a film (e.g., 4×4 cm). The film was then covered with another identical film. A 100 grams weight was added onto the whole “sandwich” to ensure sufficient contact. At different contact time, the “sandwich” was transferred into 10 mL of 0.03 wt % sodium thiosulfate aqueous solution to quench the active chlorine of the samples. The mixture was sonicated for 20 minutes and vortexed for 60 seconds to remove the adherent bacteria into the solution. The resultant solution was serially diluted, and each dilution was placed onto LB agar plates. The same procedure was also applied to the pure PS or HDPE films as controls. Bacterial colonies were counted after 24 hours of incubation at 37° C.

[4] = Thermal properties by DSC; assay type: physicochemical
Procedure: Thermal properties of the samples were examined with DSC, and the representative DSC curves are shown in FIG. 6 using DCSDMH and Cl-DCSDMH as examples. […] After chlorination, the N—H bond in DCSDMH is transformed into N—Cl group, and because of the lack of hydrogen bonding, the melting point of Cl-DCSDMH decreases to 52.4° C.

[5] = Storage stability, active chlorine content by iodimetric titration; assay type: physicochemical; settings: PS and HDPE films, storage for 4 months at 23±2° C. and 70±5% RH
Procedure: After storage for about 4 months under ambient conditions (e.g., 23±2° C., 70±5% RH), all the samples retained more than 96% of their original chlorine contents. The antimicrobial functions were tested monthly during the storage period, and after 4 months of storage, the minimum contact time of the samples for a total kill of 10^8-10^9 CFU/mL of E. coli or S. aureus was unchanged.

[6] = 1000 ppm of active chlorine content, 5 minutes of contact
[7] = 1000 ppm active chlorine content

SMILES: CCCCCCCCCCCCCCCCCCN1C(=O)N(Cl)C(C)(C)C1=O [Cl-ODDMH]
- bacteria recovered from the samples (S. epidermidis): less than 50 CFU/cm^2

SMILES: CCCCCCCCCCCCCCCCCCCCCCN1C(=O)N(Cl)C(C)(C)C1=O [Cl-DCSDMH]
- contact time for a total kill of 10^8-10^9 CFU/mL of E. coli (E. coli; 1% additive in HDPE films): 4 hours
- contact time for a total kill of 10^8-10^9 CFU/mL of E. coli (E. coli; 1% additive in PS films): 4 hours
- antimicrobial activities of the films after storage (E. coli; PS and HDPE films, storage for 4 months at 23±2° C. and 70±5% RH): no changes
- contact time for a total kill of 10^8-10^9 CFU/mL of E. coli [2]: 60 minutes
- contact time for a total kill of 10^8-10^9 CFU/mL of S. aureus [3]: 60 minutes
- exothermic peak in the DSC curve (decomposition of the N—Cl bond) [4]: 176.0 °C
- solubility in water (in words) (Solubility in water): insoluble
- active chlorine contents of the films after storage [5]: no changes

The next lines start with results.

- thermally stable up to [1]: up to 200 °C
SMILES: CC1(C)CC(OC(=O)CCCCCCCCC(=O)OC2CC(C)(C)N(Cl)C(C)(C)C2)CC(C)(C)N1Cl [Cl-BTMP, bis(N-chloro-2,2,6,6-tetramethyl-4-piperidinyl) sebacate]

- solubility in water (in words) (Solubility in water): insoluble
SMILES: CCCCCCN1C(=O)N(Cl)C(C)(C)C1=O [Cl-HDMH]
- contact time for a total kill of 10^8-10^9 CFU/mL of E. coli [2]: 30 minutes
- % of kill of E. coli ([2]; 5 minutes of contact): 99%
- log reduction of E. coli ([2]; 5 minutes of contact): 2 log
- % of kill of E. coli ([2]; contact time 15 minutes): 99.999%
- log reduction of E. coli ([2]; contact time 15 minutes): 5 log
- contact time for a total kill of 10^8-10^9 CFU/mL of S. aureus [3]: 30 minutes
- % of kill of S. aureus [3, 6]: 100%
- log reduction of S. aureus [3, 6]: 7 log
- log reduction of S. aureus ([3]; 1000 ppm of active chlorine content, contact time 15 minutes): 8 log

- solubility in water (Solubility in water; 23° C.): ca. 3 g/L
SMILES: CCN1C(=O)N(Cl)C(C)(C)C1=O [Cl-EDMH]
- contact time for a total kill of 10^8-10^9 CFU/mL of E. coli [2]: less than 5 minutes
- contact time for total kill of E. coli [2, 7]: less than 5 minutes
- contact time for a total kill of 10^8-10^9 CFU/mL of S. aureus [3]: less than 5 minutes
- contact time for total kill of S. aureus [3, 7]: less than 5 minutes

From patent publication US10689526B2, “N-halamines compounds as multifunctional additives” (BOARD OF REGENTS, THE UNIVERSITY OF TEXAS SYSTEM, priority 2005, dated 2020)
